Measurements taken from patent publication US20210395239A1 (Hoffmann-La Roche Inc., priority 2018, published 2021).
pIC50: −log10 of the molar value.

target: T1, human TLR8 (Homo sapiens, UniProt Q9NR97); assay: HEK293-Blue-hTLR-8 cells assay (SEAP reporter, R848 stimulation); type: cell-based; details: HEK293-Blue-hTLR8 cells, R848, 20 hrs; read-out: HEK/hTLR8 IC50
T1 construct: host or cells: HEK293 (HEK-Blue hTLR8)
T1 sequence (Q9NR97 27-1041): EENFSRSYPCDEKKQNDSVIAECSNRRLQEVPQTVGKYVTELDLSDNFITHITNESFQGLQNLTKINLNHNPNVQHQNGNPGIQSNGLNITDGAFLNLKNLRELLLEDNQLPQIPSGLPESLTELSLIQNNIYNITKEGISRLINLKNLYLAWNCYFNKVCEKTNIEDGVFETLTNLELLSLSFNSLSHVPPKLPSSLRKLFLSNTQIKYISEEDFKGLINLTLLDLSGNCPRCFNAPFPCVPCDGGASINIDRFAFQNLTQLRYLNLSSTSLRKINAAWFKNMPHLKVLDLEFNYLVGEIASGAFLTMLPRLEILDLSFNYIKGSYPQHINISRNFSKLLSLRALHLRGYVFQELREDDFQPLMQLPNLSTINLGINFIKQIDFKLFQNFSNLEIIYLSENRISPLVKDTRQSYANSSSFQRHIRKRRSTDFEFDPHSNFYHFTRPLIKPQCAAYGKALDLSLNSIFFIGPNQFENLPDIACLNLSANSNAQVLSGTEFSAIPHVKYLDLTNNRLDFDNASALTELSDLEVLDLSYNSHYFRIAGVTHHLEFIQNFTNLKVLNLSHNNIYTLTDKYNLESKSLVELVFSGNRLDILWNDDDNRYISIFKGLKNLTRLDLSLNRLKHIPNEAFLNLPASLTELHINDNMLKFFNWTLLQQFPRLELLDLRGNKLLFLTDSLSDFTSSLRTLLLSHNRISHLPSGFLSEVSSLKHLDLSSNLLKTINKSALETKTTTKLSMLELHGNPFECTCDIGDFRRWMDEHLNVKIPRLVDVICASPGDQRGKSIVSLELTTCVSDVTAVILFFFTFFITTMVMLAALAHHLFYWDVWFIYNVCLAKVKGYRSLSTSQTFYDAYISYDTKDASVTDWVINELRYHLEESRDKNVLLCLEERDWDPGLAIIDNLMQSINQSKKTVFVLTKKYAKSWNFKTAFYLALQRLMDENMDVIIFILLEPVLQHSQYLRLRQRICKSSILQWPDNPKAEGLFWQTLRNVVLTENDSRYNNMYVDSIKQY
Excerpt: HEK293-Blue-hTLR-8 Cells Assay:
A stable HEK293-Blue-hTLR-8 cell line was purchased from InvivoGen (Cat. #: hkb-ht1r8, San Diego, Calif., USA). These cells were originally designed for studying the stimulation of human TLR8 by monitoring the activation of NF-κB. A SEAP (secreted embryonic alkaline phosphatase) reporter gene was placed under the control of the IFN-β minimal promoter fused to five NF-κB and AP-1-binding sites. The SEAP was induced by activating NF-κB and AP-1 via stimulating HEK-Blue hTLR8 cells with TLR8 ligands. Therefore the reporter expression was declined by TLR8 antagonist under the stimulation of a ligand, such as R848, for incubation of 20 hrs. The cell culture supernatant SEAP reporter activity was determined using QUANTI-Blue™ kit (Cat. #: rep-qb1, Invivogen, San Diego, Ca, USA) at a wavelength of 640 nm, a detection medium that turns purple or blue in the presence of alkaline phosphatase.
HEK293-Blue-hTLR8 cells were incubated at a density of 250,000˜450,000 cells/mL in a volume of 170 μL in a 96-well plate in Dulbecco's Modified Eagle's medium (DMEM) containing 4.5 g/L glucose, 50 U/mL penicillin, […], […], 2 mM L-glutamine, 10% (v/v) heat-inactivated fetal bovine serum with addition of 20 μL test compound in a serial dilution in the presence of final DMSO at 1% and 10 μL of 60 uM R848 in above DMEM, perform incubation under 37° C. in a CO2 incubator for 20 hrs. Then 20 μL of the supernatant from each well was incubated with 180 μL Quanti-blue substrate solution at 37° C. for 2 hrs and the absorbance was read at 620˜655 nm using a spectrophotometer. The signaling pathway that TLR8 activation leads to downstream NF-κB activation has been widely accepted, and therefore similar reporter assay was modified for evaluating TLR8 antagonist.

Row | pIC50 | Compound
1 | 8.52 | COC1CN(c2nccc(N3CCN(C[C@H]4CN(c5ccc(C#N)c6ncccc56)C[C@@H](C)O4)CC3)n2)CC1N (stereo in doubt) [Example 93, 5-[(2S,6R)-2-[[4-[2-[(3R,4S)-3-amino-4-methoxy-pyrrolidin-1-yl]pyrimidin-4-yl]piperazin-1-yl]methyl]-6-methyl-morpholin-4-yl]quinoline-8-carbonitrile]
2 | 7.40 | C[C@@H]1CN(c2ccc(C#N)c3ncccc23)C[C@H](CN2CCC(c3cccc(N4CCNCC4)c3)C2)O1 (stereo partly drawn) [Example 1, 5-[(2R,6S)-2-methyl-6-[[3-(3-piperazin-1-ylphenyl)pyrrolidin-1-yl]methyl]morpholin-4-yl]quinoline-8-carbonitrile]
3 | 7.77 | C[C@@H]1CN(c2ccc(C#N)c3ncccc23)C[C@H](CN2CC(c3cccc(N4CCNCC4)c3)C2)O1 [Example 4, 5-[(2R,6S)-2-methyl-6-[[3-(3-piperazin-1-ylphenyl)azetidin-1-yl]methyl]morpholin-4-yl]quinoline-8-carbonitrile]
4 | 7.48 | C[C@@H]1CN(c2ccc(C#N)c3ncccc23)C[C@H](CN2CCN(c3ccc(CN)cc3)CC2)O1 [Example 5, 5-[(2S,6R)-2-[[4-[4-(aminomethyl)phenyl]piperazin-1-yl]methyl]-6-methyl-morpholin-4-yl]quinoline-8-carbonitrile]
5 | 8.52 | C[C@@H]1CN(c2ccc(C#N)c3ncccc23)C[C@H](CN2CCN(c3ccnc(N4C[C@@H](F)[C@@H](N)C4)n3)CC2)O1 [Example 95, 5-[(2S,6R)-2-[[4-[2-[(3S,4R)-3-amino-4-fluoro-pyrrolidin-1-yl]pyrimidin-4-yl]piperazin-1-yl]methyl]-6-methyl-morpholin-4-yl]quinoline-8-carbonitrile]
6 | 9.00 | CO[C@@H]1CN(c2nccc(N3CCN(C[C@H]4CN(c5ccc(C#N)c6nccnc56)C[C@@H](C)O4)CC3)n2)C[C@H]1N [Example 98, 8-[(2S,6R)-2-[[4-[2-[(3R,4R)-3-amino-4-methoxy-pyrrolidin-1-yl]pyrimidin-4-yl]piperazin-1-yl]methyl]-6-methyl-morpholin-4-yl]quinoxaline-5-carbonitrile]

The next lines start with the molecule.

Row | Compound | pIC50
7 | C[C@@H]1CN(c2ccc(C#N)c3ncccc23)C[C@H](CN2CCC(c3cccc(C4CCNCC4)c3)CC2)O1 [Example 2, 5-[(2R,6S)-2-methyl-6-[[4-[3-(4-piperidyl)phenyl]-1-piperidyl]methyl]morpholin-4-yl]quinoline-8-carbonitrile] | 7.59
8 | C[C@@H]1CN(c2ccc(C#N)c3ncccc23)C[C@H](CN2CC(c3ccc(N4CCNCC4)cc3)C2)O1 [Example 3, 5-[(2R,6S)-2-methyl-6-[[3-(4-piperazin-1-ylphenyl)azetidin-1-yl]methyl]morpholin-4-yl]quinoline-8-carbonitrile] | 8.05
9 | C[C@@H]1CN(c2ccc(C#N)c3ncccc23)C[C@H](CN2CCN(c3cnc(N4CCNCC4)cn3)CC2)O1 [Example 6, 5-[(2R,6S)-2-methyl-6-[[4-(5-piperazin-1-ylpyrazin-2-yl)piperazin-1-yl]methyl]morpholin-4-yl]quinoline-8-carbonitrile] | 8.15
10 | COc1cc(N2CCN(C[C@H]3CN(c4ccc(C#N)c5ncccc45)C[C@@H](C)O3)CC2)nc(N2CCNCC2)n1 [Example 91, 5-[(2S,6R)-2-[[4-(6-methoxy-2-piperazin-1-yl-pyrimidin-4-yl)piperazin-1-yl]methyl]-6-methyl-morpholin-4-yl]quinoline-8-carbonitrile] | 8.10
11 | CO[C@@H]1CN(c2nccc(N3CCN(C[C@H]4CN(c5ccc(C#N)c6ncccc56)C[C@@H](C)O4)CC3)n2)C[C@@H]1N [Example 92, 5-[(2S,6R)-2-[[4-[2-[(3S,4R)-3-amino-4-methoxy-pyrrolidin-1-yl]pyrimidin-4-yl]piperazin-1-yl]methyl]-6-methyl-morpholin-4-yl]quinoline-8-carbonitrile] | 8.70
12 | C[C@@H]1CN(c2ccc(C#N)c3ncccc23)C[C@H](CN2CCN(c3ncc(F)c(N4CCNCC4)n3)CC2)O1 [Example 94, 5-[(2S,6R)-2-[[4-(5-fluoro-4-piperazin-1-yl-pyrimidin-2-yl)piperazin-1-yl]methyl]-6-methyl-morpholin-4-yl]quinoline-8-carbonitrile] | 8.22
13 | C[C@@H]1CN(c2ccc(C#N)c3ncccc23)C[C@H](CN2CCN(c3ccnc(N4C[C@@H](N)[C@H](F)C4)n3)CC2)O1 [Example 96, 5-[(2S,6R)-2-[[4-[2-[(3R,4R)-3-amino-4-fluoro-pyrrolidin-1-yl]pyrimidin-4-yl]piperazin-1-yl]methyl]-6-methyl-morpholin-4-yl]quinoline-8-carbonitrile] | 8.40
14 | CO[C@H]1CN(c2ccnc(N3CCN(C[C@H]4CN(c5ccc(C#N)c6ncccc56)C[C@@H](C)O4)CC3)n2)C[C@@H]1N [Example 97, 5-[(2S,6R)-2-[[4-[4-[(3S,4S)-3-amino-4-methoxy-pyrrolidin-1-yl]pyrimidin-2-yl]piperazin-1-yl]methyl]-6-methyl-morpholin-4-yl]quinoline-8-carbonitrile] | 9.00
15 | CO[C@H]1CN(c2nccc(N3CCN(C[C@H]4CN(c5ccc(C#N)c6nccnc56)C[C@@H](C)O4)CC3)n2)C[C@@H]1N [Example 99, 8-[(2S,6R)-2-[[4-[2-[(3S,4S)-3-amino-4-methoxy-pyrrolidin-1-yl]pyrimidin-4-yl]piperazin-1-yl]methyl]-6-methyl-morpholin-4-yl]quinoxaline-5-carbonitrile] | 9.00
16 | C[C@@H]1CN(c2ccc(C#N)c3ncccc23)C[C@H](CN2CCN(c3ccnc(N4C[C@@H](N)[C@@H](F)C4)n3)CC2)O1 [Example 101, 5-[(2S,6R)-2-[[4-[2-[(3R,4S)-3-amino-4-fluoro-pyrrolidin-1-yl]pyrimidin-4-yl]piperazin-1-yl]methyl]-6-methyl-morpholin-4-yl]quinoline-8-carbonitrile] | 8.40
17 | Cc1cnc(N2CCN(C[C@H]3CN(c4ccc(C#N)c5ncccc45)C[C@@H](C)O3)CC2)nc1N1CCNCC1 [Example 102, 5-[(2R,6S)-2-methyl-6-[[4-(5-methyl-4-piperazin-1-yl-pyrimidin-2-yl)piperazin-1-yl]methyl]morpholin-4-yl]quinoline-8-carbonitrile] | 8.70
18 | C[C@@H]1CN(c2ccc(C#N)c3ncccc23)C[C@H](CN2CCN(c3ccnc(N4C[C@H]5NCCO[C@@H]5C4)n3)CC2)O1 [Example 103, 5-[(2S,6R)-2-[[4-[2-[(4aR,7aR)-3,4,4a,5,7,7a-hexahydro-2H-pyrrolo[3,4-b][1,4]oxazin-6-yl]pyrimidin-4-yl]piperazin-1-yl]methyl]-6-methyl-morpholin-4-yl]quinoline-8-carbonitrile] | 9.00
19 | CO[C@H]1CN(c2cc(C)nc(N3CCN(C[C@H]4CN(c5ccc(C#N)c6nccnc56)C[C@@H](C)O4)CC3)n2)C[C@@H]1N [Example 104, 8-[(2S,6R)-2-[[4-[4-[(3S,4S)-3-amino-4-methoxy-pyrrolidin-1-yl]-6-methyl-pyrimidin-2-yl]piperazin-1-yl]methyl]-6-methyl-morpholin-4-yl]quinoxaline-5-carbonitrile] | 9.00
